Experiments:
[1] = tested on: cortical neurons with MPP+ lesion; assay: MPP+ induced ROS in cortical neurons (DCFDA); assay type: cell-based, mouse; conditions: 0.5 and 1 μM, 8 h MPP+ lesion
Experimental: Mouse cortical neurons were prepared as described. At DIV8 cells were treated with the test and control MK801 compounds for 1 h, before the addition of MPP+(Sigma, D048) at a final concentration of 100-200 μM. The experiment was carried out with n=6 technical replicates per condition, vehicle and MPP+ alone controls were included. After 8 h determination of ROS was conducted and after 24 h of MPP+ lesion on DIV9 cells were subject to the apoptosis measurement. Apoptosis was determined using YO-PRO™-1 Iodide (Invitrogen; Y3603). Part of supernatant of the cultivated cells was removed and 10 μL of a 50 μM YO-PRO 1 solution in PBS is added to the remaining 90 μL to result in a final concentration of 5 μM YO-PRO 1 in well. Incubation for 15 min in the incubator at 37° C. was performed (light protected) followed by discarding the supernatant. 140 μL PBS was added to each well and the fluorescence was measured using a plate-reader (Cytation 5, BioTek) at excitation wavelength 485 nm to Emission wavelength 535 nm.
ROS generation was measured with Abcam's DCFDA-Cellular Reactive Oxygen Species Detection Assay (ab 113851). […] Cells were then incubated with the test items and lesion for 8 h and thereafter the fluorescent signal was measured at 485 nm/535 nm (Cytation 5, BioTek).

[2] = tested on: organotypic hippocampal brain slices with IAA lesion; assay: Organotypic brain slices, iodoacetic acid injury: mitochondrial membrane potential (TMRM); assay type: cell-based, mouse; conditions: SND118 10 and 30 μM; SND124 30 μM; IAA 250 μM for 110 min
Experimental: (§1) Preparation of the organotypic brain slices were performed by decapitation of the P9/P10 mouse pups, removing skin and skull and immersing brains in slicing medium (Opti-MEM 1, […]). Brains were hemisected and hippocampi were isolated. Hippocampi were placed on the cutting disc of a McIlwain Tissue Chopper. […] hippocampal slices were chopped transversely. A number of 4 slices per hippocampus were placed on porous (0.4 μM) transparent membrane inserts (Millipore) and incubated for 1 h on ice in HBSS containing 10 mM glucose. Afterwards inserts were transferred to fresh 24-well plates containing 250-300 μl culture medium (50% MEM/EBSS, 25% horse serum, 25% CMF-HBSS, 25 mM glucose, 0.5% pen/strep). Slices were maintained at 37° C. and 5% CO2.
(§2) On DV15, brain slices were pretreated with SND derivatives test compounds and the reference 7,8DHF at various concentrations (between […]) for 30 min, followed by the addition of iodoacetic acid (IAA) at 250 μM for 110 min, when cell survival, MMP and toxicity were measured.
Cell survival was measured by the MTT assay. […] Fluorescence was measured with a plate-reader (Cytation 5) using wavelengths of excitation and emission of 548 and 574 nm, respectively (area scan). Values were calculated as percent of control values (vehicle control). Toxicity of the treatment was measured by LDH. […]

[3] = tested on: human hepatocytes from pooled donor lot; assay: Hepatic toxicity: cell viability by ATP content; assay type: cell-based; conditions: 1 to 100 μM, 24 h exposure
Experimental: Cryopreserved human hepatocytes from pooled donor lot (Bioreclamation IVT) were seeded on collagen I coated 96-well plates (Corning Biocoat) at 0.55×10^5 cells per well in 120 μl InVitroGRO™ CP medium (BioIVT), including additives Torpedo Antibiotic mix (BioIVT). After cell attachment (4-6 hours post seeding) cell culture medium was replaced with fresh medium and incubated for 72 hours at 37° C. under 5% CO2. Thereafter, hepatocytes were exposed to test or control compounds in 100 μl of InVitroGRO™ HI medium, including additives Torpedo Antibiotic mix at concentrations presented below. Cytotoxicity and cell viability were evaluated based on LDH release in medium and ATP content in the cells after 24 hours exposure phase.
Cytotoxicity potency of test compounds SND118, SND121, SND122 and SND123 was assayed in human hepatocytes from pooled donor lot at three concentrations; 1, 10 and 100 μM. Cytotoxicity was assayed from medium samples after 24 h exposure period with test compounds by measuring membrane integrity (LDH leakage), coupled to fluorescent signal. In parallel, cell viability was assayed by the means of ATP content, indicating the metabolically competent cell activity. LDH and ATP assay kits were sourced from Promega. ATP content was measured based on luciferase catalysed reaction generating stable bioluminescent signal. […]

[4] = Metabolic stability in human plasma; assay type: in vitro ADME; conditions: 1 μM
Experimental: (§3) The compounds were incubated with plasma, and the collected samples were analyzed by UPLC/HR-MS to measure stability of the compounds.
(§4) Sample type: plasma; Species: CD1-mouse (male), human (mixed gender); Time points: 0, 20, 40, 60, 120 min;
(§5) Spiking solvent: 50% DMSO ( 1/100 to incubation); Quenching solvent: 2-fold volume of 100% ACN; Control: propanthelin bromide (human, mouse)
(§6) The study compounds were incubated with plasma as specified above. The collected samples were stored at −20 C until thawed at room temperature, centrifuged and analyzed using UPLC/PDA with high resolution mass spectrometry (QE-Orbitrap-MS on DDI mode) to monitor substrate depletion and metabolite formation. The analytical method was optimised by using the parent compounds for optimum chromatographic properties (peak shape and retention) and mass spectrometric ionisation. Disappearance was based on relative LC/MS peak areas (0 min=100%) and will be used to calculate half-lives.

[5] = Metabolic stability in mouse plasma; assay type: in vitro ADME, CD1-mouse; conditions: 1 μM
Experimental: as §3, §4, §5, §6

[6] = tested on: organotypic hippocampal brain slices with IAA lesion; assay: Organotypic brain slices, iodoacetic acid injury: cell survival (MTT); assay type: cell-based, mouse; conditions: SND118 10 and 30 μM; SND124 30 μM; 7,8 DHF 10 μm; IAA 250 μM for 110 min
Experimental: as §1, §2
Cell survival was measured by the MTT assay. For the determination of mitochondrial membrane potential, treated organotypic brain slices were loaded with the mitochondrial fluorescent dye, tetramethylrhodamine methyl ester (TMRM) at a final concentration of 100 nM in PBS and incubated for 45 min at 37° C. The TMRM containing solution was aspirated and slices were transferred into new well plates containing the appropriate amount of PBS. Fluorescence was measured with a plate-reader (Cytation 5) using wavelengths of excitation and emission of 548 and 574 nm, respectively (area scan). Values were calculated as percent of control values (vehicle control). Toxicity of the treatment was measured by LDH. No toxicity was observed.

T1/2 plasma Human [4]: 13.2 h
T1/2 plasma Mouse [5]: 13.2 h
SMILES: O=c1cc(-c2ccc(CCCC[P+](c3ccccc3)(c3ccccc3)c3ccccc3)cc2)oc2c(O)c(O)ccc12 [SND118, 4-[4-(7,8-dihydroxy-4-oxo-chromen-2-yl)phenyl]butyltriphenylphosphonium bromide]
level of ROS induced by MPP+ (DCFDA) [1]: decreased the level of ROS
mitochondria function (MMP, TMRM) after IAA lesion [2]: rescued mitochondria function
ATP content (cell viability) [3]: 72-103%
cell survival upon IAA lesion (MTT) [6]: statistically increase cell survival

Source: patent US20220411448A1, “CHROMENE-4-ONE DERIVATIVES AS BRAIN-DERIVED NEUROTROPHIC FACTOR (BDNF) MIMETICS” (FLORATEK PHARMA AG, priority 2019, published 2022)
